Measurements published in patent US10898535B2, “Composition for inhibiting and preventing myopathy, containing bean leaf extract as active ingredient” (AMOREPACIFIC CORPORATION, priority 2015, dated 2021).

Experiments:
[1] = system: C2C12 (mouse myoblast); experiment: Ability to recover cell activity of myocyte in dexamethasone-induced muscle loss model (CCK8, absorbance 450 nm); format: cell-based; conditions: differentiated C2C12, dexamethasone 1 μM, dexibuprofen 100 μM, 24 hours, control group = dexamethasone only
Experimental: In the present Experimental Example 1, the experiments were conducted to evaluate the recovery efficacy of the bean leaf extract on the decrease in cell activity of myocyte in a model of muscle loss induced by Dexamethasone. Dexamethasone is a kind of glucocorticoid, and increases expression of the Atrogin1 and Murf1 in vitro and in vivo to accelerate proteolytic degradation, thereby resulting in decrease in skeletal muscle, induction of myocyte death, and reduction of cell activity. Accordingly, an experimental model of dexamethasone to myocyte is a useful model for evaluating the function of sarcopenia and is widely used. The C2C12 (mouse myoblast) used in Experimental Example 1 was purchased from American Type Culture Collection (Manassas, Va., USA) and the cells were cultured in DMEM containing 10% FBS, 100 units/mL Penicillin, and […] streptomycin. Specific experimental methods are as follows. […] After 24 hours of treatment with the material, the medium was replaced with medium containing 10% solution of CCK8 […], and allowed to react for 10 minutes, and the cell activity was measured by measuring the absorbance at 450 nm. To increase the reliability, each sample was repeatedly measured three times to derive the average value.

[2] = system: Atrogin1 gene (mRNA); experiment: Inhibition of expression of Atrogin1 gene (mRNA) in dexamethasone-induced muscle loss model (PCR); format: cell-based, mouse; conditions: differentiated C2C12, dexamethasone 1 μM, dexibuprofen 100 μM, 6 hours, control group = dexamethasone only
Experimental: (§1) In the present Experimental Example 2, experiments were conducted to evaluate the inhibitory efficacy of the bean leaf extract against the overexpression of Atrogin1 and Murf1 mRNA in the muscle loss induced model by dexamethasone. The experimental group, the control group and the comparison group of Experimental Example 2 were prepared in the same manner as Experimental Example 1. Provided that, when 6 hours had elapsed since the treatment with each final material, RNA was extracted with trizol reagent (TRIzol agent, Invitrogen) after washing twice with cold saline, […] Expression patterns of each gene were measured using primers and probes (Applied biosystems) previously designed for genes of the synthesized cDNA and Atrogin1, Murf1, and GAPD. At this time, polymerase chain reaction (PCR) and analysis were performed using a Rotor-Gene 3000 system (Corbett Research, Sydney, Australia). To increase the reliability, each sample was repeatedly measured three times to derive the average value.

[3] = system: Murf1 gene (mRNA); experiment: Inhibition of expression of Murf1 gene (mRNA) in dexamethasone-induced muscle loss model (PCR); format: cell-based, mouse; conditions: differentiated C2C12, dexamethasone 1 μM, dexibuprofen 100 μM, 6 hours, control group = dexamethasone only
Experimental: as §1

## CC(C)Cc1ccc([C@H](C)C(=O)O)cc1 [Dexibuprofen, dexibuprofen]
[1]
  Change in cell activity relative to control group (%): −4.1%
[1]; listed as dexibuprofen
  Change in cell activity relative to control group (%): no recovery of myocyte activity is observed
[2]
  Change in Atrogin1 gene expression relative to control group (%): −2.6%
[2]; listed as dexibuprofen
  Change in Atrogin1 gene expression relative to control group (%): insignificant
[3]
  Change in Murf1 gene expression relative to control group (%): −3.3%
[3]; listed as dexibuprofen
  Change in Murf1 gene expression relative to control group (%): insignificant
